Measurements taken from patent US8791132B2, “Compounds and methods for treatment of hypertension” (Medivation Technologies, Inc., priority 2011, dated 2014).
Values joined by “and” are separate entries in the source; they are usually repeats but may differ in a detail not shown here. Equal entries are not always repeated. Where two headings read alike, the source gives them in different places.

Key:
[1] = target: T1, human recombinant adrenergic α1D receptor (Homo sapiens, UniProt P25100); experiment: Radioligand binding, adrenergic α1D ([3H]Prazosin)
T1 construct: expressed in transfected cells; host or cells: HEK-293
T1 sequence (P25100 1-572): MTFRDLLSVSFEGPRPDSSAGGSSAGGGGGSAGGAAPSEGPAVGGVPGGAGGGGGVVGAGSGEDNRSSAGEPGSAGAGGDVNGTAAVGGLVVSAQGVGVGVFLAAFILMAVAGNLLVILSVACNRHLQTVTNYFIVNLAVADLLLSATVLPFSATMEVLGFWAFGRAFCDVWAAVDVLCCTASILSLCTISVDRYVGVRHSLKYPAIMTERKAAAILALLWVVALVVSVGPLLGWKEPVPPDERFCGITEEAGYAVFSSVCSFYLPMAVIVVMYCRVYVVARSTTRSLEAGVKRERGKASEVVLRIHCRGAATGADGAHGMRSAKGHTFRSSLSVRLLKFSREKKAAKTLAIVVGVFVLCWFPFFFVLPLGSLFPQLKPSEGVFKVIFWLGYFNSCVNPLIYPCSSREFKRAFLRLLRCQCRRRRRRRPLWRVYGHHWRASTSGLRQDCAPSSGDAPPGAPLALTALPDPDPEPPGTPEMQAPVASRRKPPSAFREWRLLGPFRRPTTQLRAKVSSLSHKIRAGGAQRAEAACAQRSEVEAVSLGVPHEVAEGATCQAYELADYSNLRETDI
Experimental: Compounds were incubated with 0.6 nM [3H]Prazosin for 60 min at 25° C. Non-specific binding was estimated in the presence of 10 μM phentolamine. Receptor proteins were filtered and washed, the filters were then counted to determine [3H]Prazosin specifically bound. […] Biochemical assay results are presented as the percent inhibition of specific binding in Table B1.

[2] = target: T2, rat adrenergic α1B receptor (Rattus norvegicus, UniProt P15823); experiment: Radioligand binding, adrenergic α1B ([3H]Prazosin)
T2 construct: rat adrenergic α1B receptor obtained from Wistar Rat liver; from tissue; host or cells: Wistar rat liver
T2 sequence (P15823 1-515): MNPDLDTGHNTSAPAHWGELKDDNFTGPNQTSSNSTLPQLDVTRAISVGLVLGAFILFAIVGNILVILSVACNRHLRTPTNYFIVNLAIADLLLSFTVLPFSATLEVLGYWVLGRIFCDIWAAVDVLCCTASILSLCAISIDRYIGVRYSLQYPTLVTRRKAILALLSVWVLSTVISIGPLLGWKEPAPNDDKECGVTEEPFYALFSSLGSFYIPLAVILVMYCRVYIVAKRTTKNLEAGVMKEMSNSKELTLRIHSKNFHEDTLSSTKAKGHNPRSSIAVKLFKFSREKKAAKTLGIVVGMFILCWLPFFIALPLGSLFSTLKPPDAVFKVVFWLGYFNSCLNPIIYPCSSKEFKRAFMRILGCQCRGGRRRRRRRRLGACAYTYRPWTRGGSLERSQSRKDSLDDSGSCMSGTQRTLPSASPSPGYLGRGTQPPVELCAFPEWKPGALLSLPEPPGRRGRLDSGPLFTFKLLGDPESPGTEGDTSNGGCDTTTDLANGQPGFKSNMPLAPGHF
Outline: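 Rat α1B receptor from Wistar rat liver was incubated with 0.25 nM [3H]prazosin for 60 min at 25 °C in 50 mM Tris-HCl, pH 7.4, 0.5 mM EDTA. Non-specific binding was defined with 10 μM phentolamine. Bound radioligand was measured by filtration and counting, reported as percent inhibition of specific binding.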

[3] = target: T3, human recombinant adrenergic α2B receptor (Homo sapiens, UniProt P18089); experiment: Radioligand binding, adrenergic α2B ([3H]Rauwolscine); details: for Ki: read-out: Ki α2B
T3 construct: expressed in transfected cells; host or cells: CHO-K1
T3 sequence (P18089 1-450): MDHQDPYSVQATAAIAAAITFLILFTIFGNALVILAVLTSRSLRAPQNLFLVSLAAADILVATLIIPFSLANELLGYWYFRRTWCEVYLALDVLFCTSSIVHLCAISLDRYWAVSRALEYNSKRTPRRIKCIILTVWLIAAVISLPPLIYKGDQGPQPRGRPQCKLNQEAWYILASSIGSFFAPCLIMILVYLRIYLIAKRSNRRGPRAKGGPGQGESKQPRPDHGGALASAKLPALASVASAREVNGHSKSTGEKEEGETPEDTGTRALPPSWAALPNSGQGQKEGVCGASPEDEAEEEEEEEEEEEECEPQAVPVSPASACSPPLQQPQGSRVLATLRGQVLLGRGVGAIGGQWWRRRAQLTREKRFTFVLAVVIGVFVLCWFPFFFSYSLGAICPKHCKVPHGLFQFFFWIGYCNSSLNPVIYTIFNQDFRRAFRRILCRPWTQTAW
Outline: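 Receptor expressed in CHO-K1 cells, assayed in 50 mM Tris-HCl pH 7.4 with 12.5 mM MgCl2, 1 mM EDTA and 0.2% BSA. Compounds were incubated with 2.5 nM [3H]Rauwolscine for 60 min at 25° C; 10 μM Prazosin defined non-specific binding. Filter counting gave percent inhibition of specific binding.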

[4] = target: T4, human recombinant adrenergic α2A receptor (Homo sapiens, UniProt P08913); experiment: Radioligand binding, adrenergic α2A ([3H]MK-912); details: for Percentage inhibition of ligand binding, Adrenergic α2A: 0.1 µM
T4 construct: expressed in transfected cells; host or cells: insect Sf9 cells
T4 sequence (P08913 1-465): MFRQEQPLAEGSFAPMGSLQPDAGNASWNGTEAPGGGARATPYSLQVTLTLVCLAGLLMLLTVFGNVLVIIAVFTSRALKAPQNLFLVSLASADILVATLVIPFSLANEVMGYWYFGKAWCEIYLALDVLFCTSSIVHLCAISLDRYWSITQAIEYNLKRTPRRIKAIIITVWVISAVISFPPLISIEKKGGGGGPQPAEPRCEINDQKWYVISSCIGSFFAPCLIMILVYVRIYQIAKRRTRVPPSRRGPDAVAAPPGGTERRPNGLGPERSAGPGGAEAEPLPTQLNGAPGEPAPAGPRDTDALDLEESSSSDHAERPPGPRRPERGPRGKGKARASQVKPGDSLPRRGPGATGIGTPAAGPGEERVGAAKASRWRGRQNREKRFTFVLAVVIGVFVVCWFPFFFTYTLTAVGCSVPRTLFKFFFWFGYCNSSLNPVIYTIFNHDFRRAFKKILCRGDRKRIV
Outline: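 Sf9 membranes, 1 nM [3H]MK-912, 60 min, 25 °C, Tris-HCl pH 7.4/MgCl2/EDTA buffer. NSB: 10 μM WB-4101. Filtration, counting; % inhibition of specific binding.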

[5] = 0.1 μM compound, read-out: Percentage inhibition of ligand binding, Adrenergic α1D
[6] = 0.1 μM compound, read-out: Percentage inhibition of ligand binding, Adrenergic α1B
[7] = 0.1 μM compound, read-out: Percentage inhibition of ligand binding, Adrenergic α2B
[8] = 0.1 μM compound, read-out: Percentage inhibition of ligand binding, Adrenergic α2A
[9] = read-out: Percentage inhibition of ligand binding, Adrenergic α1D (0.1 μM), compound at 0.1 μM, [3H]Prazosin, repeat datapoints each shown
[10] = read-out: Percentage inhibition of ligand binding, Adrenergic α1B (0.1 μM), compound at 0.1 μM, [3H]Prazosin, repeat datapoints each shown
[11] = read-out: Percentage inhibition of ligand binding, Adrenergic α2B (0.1 μM), compound at 0.1 μM, [3H]Rauwolscine, repeat datapoints each shown
[12] = read-out: Percentage inhibition of ligand binding, Adrenergic α2A (0.1 μM), compound at 0.1 μM, [3H]MK-912, repeat datapoints each shown

inhibition at 0.1 µM [1, 5]	inhibition at 0.1 µM [2, 6]	inhibition at 0.1 µM [3, 7]	inhibition at 0.1 µM [4, 8]	inhibition at 0.1 µM [4, 12]	Structure (SMILES)	other results
35%	52%	74%	87%	–	C/C=C(/c1ccccc1)n1c2c(c3cc(C)ccc31)CN(C)CC2 [compound 262]	–
85%	88%	105%	102%	–	C/C(=C/n1c2c(c3cc(C)ccc31)CN(C)CC2)c1cc(C)cs1 [compound 291]	–
23%	47%	58%	55%	–	Cc1ccc2c(c1)c1c(n2C#Cc2cccc(N(C)C)c2)CCN(C)C1 [compound 256]	–
43%	55%	96%	63%	–	Cc1ccc2c(c1)c1c(n2CC(C)c2ccncc2)CCN(C)C1 (centres unmarked) [compound 255]	–
36%	69%	46%	50%	–	Cc1ccc2c(c1)c1c(n2CCc2cccc(C)n2)CCN(C)C1 [compound 297, 2,8-dimethyl-5-[2-(6-methyl-pyridin-2-yl)-ethyl]-2,3,4,5-tetrahydro-1H-pyrido[4,3-b]indole]	–
1%	-1%	-6%	81%	–	Cc1ccc(CCn2c3c(c4c(Cl)ccc(Cl)c42)CN(C)CC3)cn1 [compound 325]	Ki [3]: 206 nM; Ki [4]: 9.88 nM; inhibition at 0.03 µM ([4]; 0.03 μM compound, read-out: Percentage inhibition of ligand binding, Adrenergic α2A): 53%; Percentage inhibition of ligand binding, Adrenergic α2A ([4]; 0.1 μM compound): 84%
18%	54%	–	44%	–	CN1CCc2c(c3cc(Cl)c(Cl)cc3n2CC(C)(O)c2ccncc2)C1 (centres unmarked) [compound 253]	Percentage inhibition of ligand binding, Adrenergic α1D ([1]; 0.1 μM compound, 0.1 µM): 24%; Percentage inhibition of ligand binding, Adrenergic α1B ([2]; 0.1 μM compound, 0.1 µM): 55%; Percentage inhibition of ligand binding, Adrenergic α2B ([3]; 0.1 μM compound, 0.1 µM): 64% and 86%; Percentage inhibition of ligand binding, Adrenergic α2A ([4]; 0.1 μM compound): 64%
81%	95%	89%	96%	–	C/C(=C/n1c2c(c3cc(Cl)ccc31)CCN(C)CC2)c1cccc(F)c1 [compound 247]	–

The remaining lines, values behind:

Structure (SMILES)	inhibition at 0.1 µM [1, 5]	inhibition at 0.1 µM [2, 6]	inhibition at 0.1 µM [3, 7]	inhibition at 0.1 µM [4, 8]	inhibition at 0.1 µM [4, 12]	other results
Cc1ccc(C#Cn2c3c(c4cc(Cl)ccc42)C2CCC(C3)N2C)cn1 (centres unmarked) [compound 95]	–	–	–	–	9%	inhibition at 0.1 µM [1, 9]: 29%; inhibition at 0.1 µM [2, 10]: 52%; inhibition at 0.1 µM [3, 11]: 105%
C=C(n1ccnc1)n1c2c(c3cc(C)ccc31)CN(C)CC2 [compound 118, 5-(1-imidazol-1-yl-vinyl)-2,8-dimethyl-2,3,4,5-tetrahydro-1H-pyrido[4,3-b]indole]	–	–	–	–	19%	inhibition at 0.1 µM [1, 9]: 7%; inhibition at 0.1 µM [2, 10]: 35%; inhibition at 0.1 µM [3, 11]: 60%
C/C(=C\n1c2c(c3cc(C)ccc31)CN(C)CC2)c1c(C)noc1C [compound 110]	–	–	–	–	27%	inhibition at 0.1 µM [1, 9]: 35%; inhibition at 0.1 µM [2, 10]: 5%; inhibition at 0.1 µM [3, 11]: 62%
CN1CCc2c(n(CC(O)c3ccccc3F)c3ccc(Cl)cc23)C1 (centres unmarked) [II-48]	8%	27%	0%	26%	–	–
C/C(=C\n1c2c(c3cc(Cl)ccc31)CCN(C)CC2)c1cccnc1 [compound 244]	42%	78%	99%	76%	–	–
CNC(=O)c1ccc(/C(C)=C/n2c3c(c4cc(C)ccc42)CN(C)CC3)cn1 [compound 122]	–	–	–	–	13%	inhibition at 0.1 µM [1, 9]: 84%; inhibition at 0.1 µM [2, 10]: 51%; inhibition at 0.1 µM [3, 11]: 96%
CN1CCc2c(c3cc(Cl)ccc3n2CCc2ccc(Cl)cc2)C1 [compound 213]	–	–	–	–	98%	inhibition at 0.03 µM ([1]; read-out: Percentage inhibition of ligand binding, Adrenergic α1D (0.03 μM), compound at 0.03 μM, [3H]Prazosin, repeat datapoints each shown): 53%; inhibition at 0.03 µM ([2]; read-out: Percentage inhibition of ligand binding, Adrenergic α1B (0.03 μM), compound at 0.03 μM, [3H]Prazosin, repeat datapoints each shown): 53%; Percentage inhibition of ligand binding, Adrenergic α2B (0.1 μM) ([3]; compound at 0.1 μM, [3H]Rauwolscine, repeat datapoints each shown, 0.1 µM): 68% and 97%; Ki [3]: 26.3 nM; inhibition at 0.03 µM ([3]; read-out: Percentage inhibition of ligand binding, Adrenergic α2B (0.03 μM), compound at 0.03 μM, [3H]Rauwolscine, repeat datapoints each shown): 26%
C/C(=C\n1c2c(c3cc(C)ccc31)C1CCCN1CC2)c1ccc(C)nc1 (centres unmarked) [compound 193, 10-methyl-7-(2-(6-methylpyridin-3-yl)prop-1-enyl)-2,3,5,6,7,11c-hexahydro-1H-indolizino[7,8-b]indole]	–	–	–	–	77%	inhibition at 0.1 µM [1, 9]: 88%; inhibition at 0.1 µM [2, 10]: 93%; inhibition at 0.1 µM [3, 11]: 103%
Cc1ccc2c(c1)c1c(n2CCc2ccc(C(F)(F)F)nc2)CCN(C)C1 [compound 86]	–	–	–	–	–	inhibition at 0.1 µM ([1]; compound at 0.1 μM, [3H]Prazosin, repeat assays, each datapoint shown, read-out: Percentage inhibition of ligand binding, Adrenergic α1D): 62%; inhibition at 0.1 µM ([2]; compound at 0.1 μM, [3H]Prazosin, repeat assays, each datapoint shown, read-out: Percentage inhibition of ligand binding, Adrenergic α1B): 62%; inhibition at 0.1 µM ([3]; compound at 0.1 μM, [3H]Rauwolscine, repeat assays, each datapoint shown, read-out: Percentage inhibition of ligand binding, Adrenergic α2B): 77%; inhibition at 0.1 µM ([4]; compound at 0.1 μM, [3H]MK-912, repeat assays, each datapoint shown, read-out: Percentage inhibition of ligand binding, Adrenergic α2A): 27%
